{"source": "patent US5422344A", "about": "“Method of treating retroviral infections in mammals” (The United States of America as represented by the …, priority 1990, dated 1995)", "key": {"HIV p24 antigen": {"system": "HIV p24 antigen", "experiment": "Western blot analysis of HIV p24 antigen after HIV infection and CPT treatment", "format": "cell-based, HIV-1", "conditions": "7 days post-infection", "experimental": "A. H9 cells were infected as described in Table 1 and the text. Virus was pelleted from culture supernatants 7 days after infection. The viral pellets were resuspended, lysed, and the proteins separated and transferred as described in the Examples. The blot was analyzed using an HIV p24 specific monoclonal antibody (S. Showalter and M. Zweig, unpublished), and visualized using the Bio-Rad immunogold kit. Lane 1: virus from untreated infected cells; lane 2: virus from cells treated with 0.005 μM CPT for the first 18 h after infection.\nB. Extracts of HIV-infected cells (7 days post-infection) were prepared and analyzed as described in the Examples using an HIV p24 specific monoclonal antibody (S. Showalter and M. Zweig, unpublished). Blots were visualized using the Bio-Rad immunogold kit. Lane 1: untreated infected cells; lane 2: 0.2 μM CPT; lane 3: 0.1 μM CPT; lane 4: 0.05 μM CPT; lane 5: 0.02 μM CPT; lane 6: 0.01 μM CPT; lane 7: 0.005 μM CPT. […]\nThe culture media from cells subjected to different treatments was prepared by centrifugation (200xg, 10 min) to remove whole cells and debris, the viral particles were subsequently pelleted (35,000 rpm, 11/2h), and the viral pellet was resuspended in 100 μl of RIPA buffer (50 mM Tris-HC1, pH 7.5; 0.5M NaHPO4, 0.5% NP40, 0.25% Na-deoxycholate, 0.1% SDS). […] Protein concentration was determined using the Bio-Rad protein assay. […]"}, "[1]": {"system": "HIV-IIIB (HIV-1) replication in H9 cells", "experiment": "HIV replication in cocultivation of H9/HIV-IIIB chronically infected cells with H9 cells", "format": "cell-based", "experimental": "10 H9/HIV-IIIB (A,D), 100 H9/HIV-IIIB (B,E) or 1000 H9/HIV-IIIB cells (C,F) were cocultivated with 10^5 H9 cells in the presence or absence of 0.01 μM (A,B), 0.2 μM (C) , 0.005 μM (D,E), or 0,005-0.01 μM (F) of CPT for 1 h (A,B,C) or 18h (D,E,F). RT activity was measured in the culture media 7,8, and 9 days post-infection and treatment.\nCocultivation of H9/HIV-IIIB Cells with Uninfected H9 Cells and CPT Treatment: Ten, 100 or 1,000 H9/HIV-IIIB cells were cocultivated with 10^5 H9 cells in the presence or absence of different CPT doses. Cells were incubated for 1 h at 37° C., pelleted, washed and resuspended in fresh media. RT activity in the culture media was measured seven, eight, and nine days after infections, as described above.\nFor a longer treatment period, H9/HIV-IIIB cells were cocultivated with H9 cells in the presence or absence of 0.005-0.01 μM CPT for 18 h at 37° C.\nCPT Inhibition of HIV Replication in Cocultivation of H9/HIV-IIIB Chronically Infected Cells with H9 Uninfected Cells. Since it is likely that HIV infection in vivo involves cell to cell contact and virus production by previously infected cells, the ability of CPT to block the spread of HIV in uninfected H9 cells cocultivated with cells chronically infected with HIV was examined. The results shown in FIG. 2A indicate that 100% inhibition of HIV replication was observed when 10 infected cells were mixed with uninfected cells in the presence of 0.01 μM CPT for 1 h. […] However, increasing the CPT dose to 0.2 μM reduced HIV replication to 15% of control values when 1000 infected cells were mixed with 10^5 uninfected H9 cells (FIG. 2C)."}, "[2]": {"system": "Spleen Focus Forming Virus (SFFV)", "experiment": "Inhibition of disease induction in vivo by SFFV, IV or IP", "parameters": "species or system NFS mice", "conditions": "CPT 20 mg/kg; for # diseased mice (diseased/injected) / AVG. spleen WT.: 4 weeks", "experimental": "Inhibition of Disease Induction In Vivo by Spleen Focus Forming Virus (SFFV) by Intravenous or Intraperitoneal Infection of CPT. In a repeat and extension of the previous experiment, NFS mice were injected either intraperitoneally or intravenously with dilutions of infectious virus stock in the presence or absence of CPT. Virus was mixed with stocks of CPT dissolved in DMSO at 10 mg/ml and adjusted so that mice were treated at 20 mg/kg. In samples without CPT, DMSO was added to an equivalent concentration (9.6%). In both IP and IV injections, 0.5ml was injected per mouse. Animals were monitored and sacrificed 4 weeks after injection. Spleens were weighed, and a spleen weight in excess of 0.2 gm was judged positive for SFFV disease."}, "[3]": {"system": "lentivirus-associated topoisomerase", "experiment": "Inhibition of lentivirus-associated topoisomerase activity", "format": "biochemical, HIV and EIAV"}, "viral associated topo I": {"system": "viral associated topo I", "experiment": "Inhibition of viral associated topo I activity", "format": "biochemical"}, "eukaryotic topo I": {"system": "eukaryotic topo I", "conditions": "Gupta et al. 1988; cited from earlier work"}}, "note": "Like-named read-outs stand apart in the source and are kept apart here."}
{"smiles": "CC[C@@]1(O)C(=O)OCc2c1cc1n(c2=O)Cc2cc3ccccc3nc2-1", "note": "[CPT, Camptothecin]", "values": [{"measurement": "p24 in culture media", "setting": "HIV p24 antigen; 0.005 μM CPT for first 18 h (FIG. 1A)", "result": "could not be detected in the culture media"}, {"measurement": "p24 in cell extracts", "setting": "HIV p24 antigen; 0.005-0.2 μM CPT, 1 h (FIG. 1B)", "result": "could not be detected in extracts"}, {"measurement": "activity at 0.2 µM", "setting": "[1]; Human immunodeficiency virus 1, IIIB, H9, 1 h, read-out: HIV replication reduced to % of control values", "result": 15, "unit": "%"}, {"measurement": "inhibition at 0.01 µM", "setting": "[1]; Human immunodeficiency virus 1, IIIB, H9, 1 h, read-out: inhibition of HIV replication, 10 infected cells, 0.01 μM CPT, 1 h", "result": 100, "unit": "%"}, {"measurement": "inhibition at 0.01 µM", "setting": "[1]; Human immunodeficiency virus 1, IIIB, H9, 1 h, read-out: inhibition of HIV replication, 100 infected cells, 0.01 μM CPT, 1 h", "result": 50, "unit": "%"}, {"measurement": "inhibition at 0.01 µM", "setting": "[1]; Human immunodeficiency virus 1, IIIB, H9, 1 h, read-out: inhibition of HIV replication, 1000 infected cells, 0.01 μM CPT, 1 h (data not shown)", "result": 13, "unit": "%"}, {"measurement": "inhibition at 0.005 µM", "setting": "[1]; Human immunodeficiency virus 1, IIIB, H9, 18 h, read-out: inhibition of HIV replication (RT activity), 10 or 100 infected cells, 0.005 μM CPT, 18 h, days 7, 8 and 9", "result": "98 to 100", "unit": "%"}, {"measurement": "inhibitory effect on HIV replication", "setting": "[1]; larger numbers of infected cells, 0.2 μM CPT, or 0.005 μM for 18h", "result": "strong inhibitory effect on HIV replication"}, {"measurement": "# diseased mice (diseased/injected)", "setting": "[2]; no virus, IP", "result": "0/5"}, {"measurement": "AVG. spleen WT.", "setting": "[2]; no virus, IP", "result": 0.10, "unit": "g"}, {"measurement": "# diseased mice (diseased/injected)", "setting": "[2]; no virus, IV", "result": "0/5"}, {"measurement": "AVG. spleen WT.", "setting": "[2]; no virus, IV", "result": 0.10, "unit": "g"}, {"measurement": "injected mice died within 24 hours of causes unrelated to viral disease", "setting": "[2]; virus 1/500, IP", "result": "4/5"}, {"measurement": "# diseased mice (diseased/injected)", "setting": "[2]; virus 1/500, IP", "result": "0/1"}, {"measurement": "AVG. spleen WT.", "setting": "[2]; virus 1/500, IP", "result": 0.20, "unit": "g"}, {"measurement": "# diseased mice (diseased/injected)", "setting": "[2]; virus 1/500, IV", "result": "0/5"}, {"measurement": "AVG. spleen WT.", "setting": "[2]; virus 1/500, IV", "result": 0.10, "unit": "g"}, {"measurement": "injected mice died within 24 hours of causes unrelated to viral disease", "setting": "[2]; virus 1/1000, IP", "result": "3/5"}, {"measurement": "# diseased mice (diseased/injected)", "setting": "[2]; virus 1/1000, IP", "result": "0/2"}, {"measurement": "AVG. spleen WT.", "setting": "[2]; virus 1/1000, IP", "result": 0.15, "unit": "g"}, {"measurement": "# diseased mice (diseased/injected)", "setting": "[2]; virus 1/1000, IV", "result": "0/5"}, {"measurement": "AVG. spleen WT.", "setting": "[2]; virus 1/1000, IV", "result": 0.12, "unit": "g"}, {"measurement": "lentivirus-associated topoisomerase activity", "setting": "[3]", "result": "inhibited this activity"}, {"measurement": "viral associated topo I activity", "setting": "viral associated topo I", "result": "inhibited"}, {"measurement": "inhibition of eukaryotic topo I", "setting": "eukaryotic topo I", "result": "known specific inhibitor of eukaryotic topo I"}]}
